From patent publication US7354918B2, “Derivatives of 14.15-dihydro 20.21-dinoreburnamenin-14-ol and applications thereof” (Biocortech, priority 2004, dated 2008)

Assays:
Balb/c variety = assay: Tail Suspension Test (TST); assay type: in vivo, Balb/c mice; conditions: 6-minute period, vehicle 180
Procedure: The behavioural activity test, the Tail Suspension Test (TST) validated by antidepressants (Ref. 7) in the Balb/c variety, was also done for the molecule in the preferred example (Ie1b) at a dose of 1 mg/kg i.p. The experiment given as an example was carried out three days after a single injection and the effect was compared with the effect of imipramine (30 mg/kg i.p. 30 minutes before the test) (see Table 4 below).
The results are the average for n animals.

[1] = tested on: tyrosine hydroxylase (TH) in the Locus Caeruleus (LC); assay: TH protein content in the locus caeruleus, direct transfer of brain sections on nitrocellulose, quantitative immunochemistry; assay type: in vivo, Balb/c mice; conditions: for Quantity of TH measured in the LC: single dose 20 mg/kg i.p., sacrificed three days after injection, average±sem on the entire structure, percent of the average value of the corresponding control group
[2] = tested on: voltage dependent Na channels; assay: Receptorial profile in vitro on 74 receptors and channels; assay type: binding; conditions: concentration of 10 micromoles
[3] = tested on: voltage dependent K channels; assay: as above; assay type: binding; conditions: concentration of 10 micromoles
[4] = tested on: cells containing TH in the LC; assay: Number of TH immunopositive cells in the LC by immunohistochemistry; assay type: in vivo, Balb/c mice
Procedure: The number of immunopositive cells for TH is determined starting from coronal brain sections fixed by immunohistochemistry using the same anatomic sampling.
The results in FIG. 2 show the posterior-anterior distribution of the number of cells containing TH in the LC determined by immunohistochemistry obtained in a control group of Balb/c mice and in a group of mice treated by the molecule with formula (Ie1). Each bar represents the average obtained in each 80 μm anatomic interval in each experimental group±sem. **** indicates p<0.0001 determined by an ANOVA II (treatment factor). […] In the entire structure, the average values found were equal to 996±1 and 1250±58 in the control group and in the treated group respectively. (Administered dose 20 mg/kg i.p. sequential treatment at D0, D3, D6, D9 and D12, animals sacrificed at D16).
This phenomenon may be stabilised by an appropriate sequential treatment (for example: one 20 mg/kg i.p. injection every 3 days for 15 days, see FIG. 2). Under these conditions, the increase in the number of positive supernumerary TH cells that appeared in the LC is still maintained for 24 days after the treatment stopped.

M1 receptors = molecular target: T1, M1 receptors (Homo sapiens, UniProt P11229); assay: Receptorial profile in vitro on 74 receptors and channels; assay type: binding; conditions: concentration of 10 micromoles
T1 sequence (P11229 1-460): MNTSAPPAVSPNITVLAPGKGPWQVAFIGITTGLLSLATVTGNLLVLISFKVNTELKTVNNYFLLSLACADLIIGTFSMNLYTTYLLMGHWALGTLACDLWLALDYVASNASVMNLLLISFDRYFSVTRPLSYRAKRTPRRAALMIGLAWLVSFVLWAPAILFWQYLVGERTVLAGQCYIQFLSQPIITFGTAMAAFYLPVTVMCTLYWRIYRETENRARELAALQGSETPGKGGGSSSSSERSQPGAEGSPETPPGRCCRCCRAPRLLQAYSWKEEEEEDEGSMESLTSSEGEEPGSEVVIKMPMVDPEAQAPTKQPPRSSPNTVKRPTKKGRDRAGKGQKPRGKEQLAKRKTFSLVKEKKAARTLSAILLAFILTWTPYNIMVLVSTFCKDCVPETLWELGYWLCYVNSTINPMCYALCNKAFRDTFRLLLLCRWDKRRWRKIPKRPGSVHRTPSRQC

5HT5A receptors = 5HT5A receptors (Homo sapiens, UniProt P47898); assay: as above; assay type: binding; conditions: concentration of 10 micromoles
Sequence of 5HT5A receptors (P47898 whole entry): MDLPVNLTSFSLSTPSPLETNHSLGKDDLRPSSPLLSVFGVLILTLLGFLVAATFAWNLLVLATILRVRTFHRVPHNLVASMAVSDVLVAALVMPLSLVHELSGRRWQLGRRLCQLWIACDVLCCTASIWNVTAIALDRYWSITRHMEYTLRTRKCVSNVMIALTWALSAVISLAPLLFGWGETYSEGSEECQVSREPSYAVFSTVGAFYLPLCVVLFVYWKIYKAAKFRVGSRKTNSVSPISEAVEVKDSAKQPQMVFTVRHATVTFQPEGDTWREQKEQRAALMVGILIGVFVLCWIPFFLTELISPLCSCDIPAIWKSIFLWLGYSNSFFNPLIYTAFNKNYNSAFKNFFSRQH

[5] = tested on: positive TH fibres of the prefrontal cortex; assay: Positive TH (noradrenergic) fibres in the prefrontal cortex by immunocytochemistry; assay type: in vivo, Balb/c mouse; conditions: 5 i.p. injections 20 mg/kg every three days, sacrificed three days after the last injection
Source text: The results in FIG. 3 show the distribution of positive TH fibres on a prefrontal cortex sample of the Balb/c mouse. At left: in a control mouse, the typical orientation (parallel to the surface of the cortex) of noradrenergic fibres identified using an immunocytochemical reaction related to the presence of TH protein, is noticed in the molecular layer of the prefrontal cortex. […] The animals were sacrificed three days after the last injection. The dashed lines mark the limit of the molecular layer of the prefrontal cortex.

[6] = Biodistribution study (brain, liver) after i.p. and oral administration; assay type: in vivo; conditions: for share of the cerebral concentration: 45 minutes after p.o. administration of (Ie1) 60 mg/kg
[7] = tested on: catecholamine transport systems; assay: Receptorial profile in vitro on 74 receptors and channels; assay type: binding; conditions: concentration of 10 micromoles
SK+Ca channels = assay: as above; assay type: binding; conditions: concentration of 10 micromoles
[8] = tested on: voltage dependent Ca channels; assay: as above; assay type: binding; conditions: concentration of 10 micromoles
[9] = tested on: cells expressing hypocretins in the lateral hypothalamus; assay: Distribution of cells expressing hypocretins in the lateral hypothalamus by immunocytochemistry; assay type: in vivo, Balb/c mice; conditions: single dose 20 mg/kg i.p.
Procedure: This property is shared with its direct synthesis precursor, the compound with formula (1). Table 3 below illustrates this type of result the two chemical entities:
The distribution of cells expressing hypocretins in the lateral hypothalamus is studied here with posterior—anterior sampling in consecutive 80 μm thick intervals. The cells are identified by immunocytochemistry using specific antibodies. The two molecules studied were administered by i.p. method with a single dose of 20 mg/kg. The animals were sacrificed three days after injection. A population of about a hundred supernumerary cells is thus identified at the posterior third of the cerebral core.

[10] = Interval 1 (80 μm, posterior-anterior), sacrificed three days after injection
[11] = Interval 2, three days after injection
[12] = Interval 3, three days after injection
[13] = Interval 4, three days after injection
[14] = Interval 5, three days after injection
[15] = Interval 6, three days after injection
[16] = Interval 7, three days after injection
[17] = Interval 8, three days after injection
[18] = Interval 9, three days after injection
[19] = Interval 10, three days after injection
[20] = Interval 11, three days after injection
[21] = Sum of intervals 1-11, three days after injection

14,15-dihydro 14-(2-morpholin-4-yl-ethoxy) 20,21-dinoreburnamenin [(Ie1b)]
Average immobilisation time (Balb/c variety; 1 mg/kg i.p., three days after a single injection): 130 s | activity relative to the other enantiomer (Ie1a) ([1]; mouse, in vivo): twice as active

CCOC(=O)COC1C[C@@H]2CCCN3CCc4c(n1c1ccccc41)[C@@H]23 (mixture of isomers) [(Ia1), (±) (16α) 14,15-dihydro 14-ethoxycarbonylmethoxy-20,21-dinoreburnamenin]
Quantity of TH measured in the LC [1]: 151 ± 5%

Cc1noc(COC2C[C@@H]3CCCN4CCc5c(n2c2ccccc52)[C@@H]34)n1 (mixture of isomers) [(Ig1), (±) (3β, 16α) 14,15-dihydro 14-(3-methyl-[1,2,4]oxadiazol-5-ylmethoxy) 20,21-dinoreburnamenin]
Quantity of TH measured in the LC [1]: 118 ± 3%

c1ccc(COC2C[C@@H]3CCCN4CCc5c(n2c2ccccc52)[C@@H]34)cc1 (mixture of isomers) [Compound (Id), (±) (3β, 16α) 14,15-dihydro 14-benzyloxy 20,21-dinoreburnamenin]
Quantity of TH measured in the LC [1]: 129 ± 5%

c1ccc2c(c1)c1c3n2[C@H](OCCN2CCOCC2)C[C@@H]2CCCN(CC1)[C@@H]32 (racemic) [Compound (Ie1), 14,15-dihydro 14-(2-morpholin-4-yl-ethoxy) 20,21-dinoreburnamenin]
interaction with voltage dependent Na channels [2]: no interaction | interaction with voltage dependent K channels [3]: no interaction | number of cells containing TH in the LC, entire structure (average) ([4]; 20 mg/kg i.p. sequential treatment at D0, D3, D6, D9 and D12, sacrificed at D16, control group 996±1): 1250±58 | time for which the increase in positive supernumerary TH cells in the LC is maintained after the treatment stopped ([4]; one 20 mg/kg i.p. injection every 3 days for 15 days): 24 days | affinity for M1 receptors (M1 receptors): moderate affinity link may be suspected | affinity for 5HT5A receptors (5HT5A receptors): moderate affinity link may be suspected | density of noradrenergic fibres in the prefrontal cortex [5]: very significant increase | cerebral concentration/hepatic concentration ratio ([6]; 45 minutes after i.p. administration, 20 mg/kg): 0.41 | cerebral concentration/hepatic concentration ratio ([6]; 45 minutes after os administration, 60 mg/kg): 0.49 | share of the cerebral concentration [6]: 89% | interaction with catecholamine transport systems [7]: no interaction | interaction with SK+Ca channels (SK+Ca channels): no interaction | interaction with voltage dependent Ca channels [8]: no interaction | 50% effective dose (DE50) ([1]; intra-peritoneal (i.p.) method): 0.5 mg/kg | activity relative to direct synthesis precursor with formula (1) ([1]; mouse, in vivo): 30 times | activity by mouth ([1]; oral): active by mouth | 50% effective dose (DE50) ([1]; oral (p.o.) method): 1.5 mg/kg | Quantity of TH measured in the LC [1]: 138 ± 4% | Number of cells expressing hypocretins [9, 10]: 31.9 | Number of cells expressing hypocretins [9, 11]: 63.7 | Number of cells expressing hypocretins [9, 12]: 125.1 | Number of cells expressing hypocretins [9, 13]: 210.5 | Number of cells expressing hypocretins [9, 14]: 331.7 | Number of cells expressing hypocretins [9, 15]: 369.9 | Number of cells expressing hypocretins [9, 16]: 388.7 | Number of cells expressing hypocretins [9, 17]: 322.5 | Number of cells expressing hypocretins [9, 18]: 216.3 | Number of cells expressing hypocretins [9, 19]: 104.8 | Number of cells expressing hypocretins [9, 20]: 56.0 | Number of cells expressing hypocretins [9, 21]: 2221.1

O=C(COC1CC2CCCN3CCc4c(n1c1ccccc41)C23)NCCN1CCOCC1 (racemic) [Compound (If1), (±) (3β, 16α) 14,15-dihydro 14-[(2-morpholin-4-yl-ethylcarbamoyl)-methoxy]20,21-dinoreburnamenin]
increase of the total TH content in the LC ([1]; FIG. 1, 3 days after a single i.p. injection (20 mg/kg), versus control mice): 13±3% | Quantity of TH measured in the LC [1]: 113 ± 4%

C1=Cn2c3c(c4ccccc42)CCN2CCC[C@@H]1[C@H]32 [(Ij1)]
Quantity of TH measured in the LC [1]: 123 ± 2%

OC1C[C@H]2CCCN3CCc4c(n1c1ccccc41)[C@@H]23 (stereo partly drawn) [Compound (1), 14,15 dihydro-20,21-dinoreburnamenin14-ol, reference compound]
presence of the substance after i.p. administration of compound (Ie1) ([6]; 45 minutes after i.p. administration of (Ie1) 20 mg/kg): undetectable | share of the cerebral concentration [6]: 11% | Quantity of TH measured in the LC [1]: 120 ± 4% | Number of cells expressing hypocretins [9, 10]: 60.357 | Number of cells expressing hypocretins [9, 11]: 116.369 | Number of cells expressing hypocretins [9, 12]: 177.209 | Number of cells expressing hypocretins [9, 13]: 317.237 | Number of cells expressing hypocretins [9, 14]: 367.454 | Number of cells expressing hypocretins [9, 15]: 377.594 | Number of cells expressing hypocretins [9, 16]: 365.523 | Number of cells expressing hypocretins [9, 17]: 236.600 | Number of cells expressing hypocretins [9, 18]: 136.166 | Number of cells expressing hypocretins [9, 19]: 60.840 | Number of cells expressing hypocretins [9, 20]: 23.177 | Number of cells expressing hypocretins [9, 21]: 2238.526

CN(C)CCCN1c2ccccc2CCc2ccccc21 [Imipramine, imipramine, reference compound]
Average immobilisation time (Balb/c variety; 30 mg/kg i.p. 30 minutes before the test): 70 s
